How the values were obtained:
Type in all cases: biochemical
full-length human PHD1 = biological target: T1, full-length human PHD1 (Homo sapiens, UniProt Q96KS0); test: TR-FRET assay, PHD1 enzymatic IC50; settings: 15 nM PHD1, 1 μM 2-OG
T1 construct: expressed in a baculovirus expression system as the full-length protein; FLAG (N); purchased Active Motif 81064; host or cells: baculovirus expression system
Text: (§1) In the presence of 2-oxoglutarate and O2, PHD enzyme hydroxylates proline 564 of biotin-tagged HIF-1α peptide resulting in generation of biotin-tagged HIF-1α-hydroxyproline, succinate and CO2. The resulting proximity of the donor fluorophore complex, monoclonal antibody anti-6His-Terbium (Tb)-cryptate Gold, bound to the His-tagged VHL protein, EloB, EloC complex (His-VBC) and the acceptor fluorophore, SA-D2 complex, bound to HIF-1α-hydroxyproline results in a fluorescence resonance energy transfer signal that can be detected and quantified
(§2) Time-resolved fluorescence resonance energy transfer (TR-FRET) assay was utilized to determine the enzymatic half maximal inhibitory concentration (IC50) value of PHD inhibitors against the full-length human prolyl-4-hydroxylase domain (PHD) enzymes, PHD1, PHD2, and PHD3. The TR-FRET assay was developed based on the specific binding of hydroxylated HIF-1α peptide with the complex formed by VHL, EloB and EloC (VBC), to generate a fluorescent signal. Terbium (Tb)-Donor (monoclonal antibody anti-6His-Tb-cryptate Gold) and D2-acceptor (streptavidin [SA]-D2) of TR-FRET are linked to the VBC complex and to HIF-1α peptide, respectively. The VBC complex binds specifically to the HIF-1α peptide when it is hydroxylated, allowing energy transfer from TR-FRET donor to acceptor (FIG. 1).
Recombinant human PHD1 protein (catalog #81064, Lot #24717001) was purchased from Active Motif (Carlsbad, Calif., USA). PHD1 was expressed in a baculovirus expression system as the full-length protein (NCBI accession number NP_542770.2) with an N-terminal FLAG tag (molecular weight 44.9 kDa). Purity (>90%) was assessed by SDS-PAGE.
(§3) PHD inhibitor compound was preincubated with PHD enzyme in a 10 μL reaction volume in white 384-well Optiplate microplates (catalog #6007290, Perkin Elmer, Waltham, Mass., USA). For this, 5 μL PHD inhibitor compound was serially diluted with dilution buffer (50 mM HEPES [4-(2-hydroxyethyl)-1-piperazineethanesulfonic acid] pH 7.5, 50 mM sodium chloride [NaCl], 0.01% Tween-20, 0.01% purified bovine serum albumin [BSA]) and mixed with 5 μL PHD enzyme mix prepared as a 4× concentrate in the dilution buffer containing PHD enzyme (60 nM PHD1, 20 nM PHD2, 140 nM PHD3), 40 μM ferrous ammonium sulfate (FAS), 4 mM sodium (Na) ascorbate. The plates were incubated for 30 minutes at room temperature without rotation.
(§4) Five microliters of the VBC/anti-6His-Tb-cryptate Gold mix prepared as a 4×concentrate in dilution buffer containing 20 nM His-VBC, 1.32 nM monoclonal antibody anti-6His-Tb-cryptate Gold was then added. This step was followed immediately by the addition of 5 μL of the HIF-1α C35 substrate mix prepared as a 4×concentrate in the dilution buffer containing 120 nM biotin-labeled HIF-1α C35, 132 nM SA-D2, 4 μM 2-oxoglutarate (2-OG) to reach a final reaction volume of 20 μL.
(§5) The final assay reaction contained 50 mM HEPES, pH 7.5, 50 mM NaCl, 1 μM 2-OG, 10 μM FAS, 1 mM Na ascorbate, 0.01% Tween-20, 0.01% purified BSA, 30 nM biotin-labeled HIF-1α C35, 5 nM His-VBC, 0.33 nM monoclonal antibody anti-6His-Tb-cryptate Gold, 33 nM SA-D2 and PHD enzyme (15 nM PHD1, 5 nM PHD2, or 35 nM PHD3) with the diluted compound.
(§6) For the measurement of the IC50 of PHD inhibitor compound, reactions were incubated for 10 minutes at room temperature and then read on a Perkin Elmer EnVision (Waltham, Mass., USA) at an excitation wavelength of 340 nm and at emission wavelengths of 615 nm and 665 nm. The data represent the quotient of the signal intensity at 665 nm and 615 nm, automatically calculated by Envision Manager software (Perkin Elmer, Waltham, Mass., USA). The IC50 values (mean, standard deviation, standard error of the mean, geometric mean and 95% confidence interval) were determined using a four-parameter curve-fit using GraphPad Prism 7.0 (GraphPad, La Jolla, Calif., USA) and represent the compound concentration plotted against the calculated ratio of 665 nm and 615 nm. […]

full-length human PHD2 = biological target: T2, full-length human PHD2 (Homo sapiens, UniProt Q9GZT9); test: TR-FRET assay, PHD2 enzymatic IC50; settings: 5 nM PHD2, 1 μM 2-OG
T2 construct: The PHD2 construct contained amino acids 1 to 426 of PHD2; His tag (N, cleaved yes); TEV protease cleavage site (N, cleaved yes); host or cells: Sf9 insect cells (baculovirus)
Text: as §1, §2
The full-length human PHD2 enzyme was produced with a baculovirus infected insect cell (BIIC) expression system by Beryllium (Bedford, Mass., USA). The PHD2 construct contained amino acids 1 to 426 of PHD2 (UniProt Knowledgebase[UniProtKB]/Swiss-Prot accession number Q9GZT9.1), and a His tag and a Tobacco Etch Virus (TEV) protease cleavage site at the N-terminus. The construct was expressed in Sf9 insect cells, purified by Ni-NTA column and digested with TEV protease to remove the His tag.
as §3, §4, §5
For the measurement of the IC50 of PHD inhibitor compound, reactions were incubated for 10 minutes at room temperature and then read on a Perkin Elmer EnVision (Waltham, Mass., USA) at an excitation wavelength of 340 nm and at emission wavelengths of 615 nm and 665 nm. The data represent the quotient of the signal intensity at 665 nm and 615 nm, automatically calculated by Envision Manager software (Perkin Elmer, Waltham, Mass., USA). […]

full-length human PHD3 = biological target: T3, full-length human PHD3 (Homo sapiens, UniProt Q9H6Z9); test: TR-FRET assay, PHD3 enzymatic IC50; settings: 35 nM PHD3, 1 μM 2-OG
T3 construct: It was expressed in E. coli as the full-length protein; 6-His (N); purchased Active Motif 81033; host or cells: E. coli
Text: as §1, §2
Recombinant human PHD3 protein (molecular weight 31.1 kDa) was purchased from Active Motif (Carlsbad, Calif., USA). It was expressed in E. coli as the full-length protein (NCBI accession number NP_071356.1) with an N-terminal 6-His tag (catalog #81033, Lot #24417001).
as §3, §4, §5, §6

T3 sequence (Q9H6Z9 whole entry): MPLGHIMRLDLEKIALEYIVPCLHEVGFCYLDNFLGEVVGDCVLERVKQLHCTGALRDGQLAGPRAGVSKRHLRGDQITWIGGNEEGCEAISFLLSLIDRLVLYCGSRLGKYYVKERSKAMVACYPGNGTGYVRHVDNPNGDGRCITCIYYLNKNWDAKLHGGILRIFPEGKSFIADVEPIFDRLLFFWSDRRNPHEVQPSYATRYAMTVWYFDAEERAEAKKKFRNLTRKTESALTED
T1 sequence (Q96KS0 whole entry): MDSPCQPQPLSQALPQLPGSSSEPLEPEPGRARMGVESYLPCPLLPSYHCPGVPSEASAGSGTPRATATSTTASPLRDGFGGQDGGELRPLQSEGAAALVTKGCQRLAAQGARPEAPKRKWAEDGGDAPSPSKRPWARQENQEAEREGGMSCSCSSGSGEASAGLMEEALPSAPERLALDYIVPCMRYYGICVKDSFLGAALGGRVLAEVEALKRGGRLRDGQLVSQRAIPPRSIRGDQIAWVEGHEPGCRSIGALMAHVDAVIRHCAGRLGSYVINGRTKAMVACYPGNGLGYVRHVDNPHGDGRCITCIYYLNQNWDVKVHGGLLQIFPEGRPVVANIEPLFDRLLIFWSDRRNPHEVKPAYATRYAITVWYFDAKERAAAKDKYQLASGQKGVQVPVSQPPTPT
T2 sequence (Q9GZT9 whole entry, the tested form may be a part): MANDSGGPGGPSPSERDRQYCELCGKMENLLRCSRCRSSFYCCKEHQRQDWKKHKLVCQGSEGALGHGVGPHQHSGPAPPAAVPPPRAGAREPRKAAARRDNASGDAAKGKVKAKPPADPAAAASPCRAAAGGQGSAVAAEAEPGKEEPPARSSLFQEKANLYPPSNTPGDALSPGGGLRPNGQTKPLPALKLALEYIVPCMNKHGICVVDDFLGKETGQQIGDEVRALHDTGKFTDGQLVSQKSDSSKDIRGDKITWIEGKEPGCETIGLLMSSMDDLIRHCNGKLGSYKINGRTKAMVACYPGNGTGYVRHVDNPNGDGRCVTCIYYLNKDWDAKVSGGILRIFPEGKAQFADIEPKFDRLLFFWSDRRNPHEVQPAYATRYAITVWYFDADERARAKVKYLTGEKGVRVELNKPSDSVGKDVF

SMILES	IC50 (full-length human PHD1)	IC50 (full-length human PHD2)	IC50 (full-length human PHD3)
CC(=O)c1ccc(-n2ncc(-c3ccc(C#N)cc3)c2O)nc1 [Compound 1, 4-(1-(5-acetylpyridin-2-yl)-5-hydroxy-1H-pyrazol-4-yl)benzonitrile]	< 0.1 µM	< 0.1 µM	< 0.1 µM
CCC(=O)c1ccc(-n2ncc(-c3ccc(C#N)cc3)c2O)nc1 [Compound 2, 4-(5-hydroxy-1-(5-propionylpyridin-2-yl)-1H-pyrazol-4-yl)benzonitrile]	< 0.1 µM	< 0.1 µM	< 0.1 µM
CC(C)C(=O)c1ccc(-n2ncc(-c3ccc(C#N)cc3)c2O)nc1 [Compound 3, 4-(5-hydroxy-1-(5-isobutyrylpyridin-2-yl)-1H-pyrazol-4-yl)benzonitrile]	< 0.1 µM	< 0.1 µM	< 0.1 µM
CS(=O)(=O)c1ccc(-n2ncc(-c3ccc(C#N)cc3)c2O)nc1 [Compound 4, 4-(5-hydroxy-1-(5-(methylsulfonyl)pyridin-2-yl)-1H-pyrazol-4-yl)benzonitrile]	< 0.1 µM	< 0.1 µM	< 0.1 µM
CS(=O)(=O)c1ccc(-n2ncc(-c3cccc(C#N)c3)c2O)nc1 [Compound 5, 3-(5-hydroxy-1-(5-(methylsulfonyl)pyridin-2-yl)-1H-pyrazol-4-yl)benzonitrile]	0.1 to 1 µM	< 0.1 µM	
Cc1cc(C#N)ccc1-c1cnn(-c2ccc(S(C)(=O)=O)cn2)c1O [Compound 6, 4-(5-hydroxy-1-(5-(methylsulfonyl)pyridin-2-yl)-1H-pyrazol-4-yl)-3-methylbenzonitrile]	< 0.1 µM	< 0.1 µM	< 0.1 µM
CS(=O)(=O)c1ccc(-n2ncc(-c3ccc(CC#N)cc3)c2O)nc1 [Compound 7, 2-(4-(5-hydroxy-1-(5-(methylsulfonyl)pyridin-2-yl)-1H-pyrazol-4-yl)phenyl)acetonitrile]	< 0.1 µM	< 0.1 µM	< 0.1 µM
COc1cc(-c2cnn(-c3ccc(S(C)(=O)=O)cn3)c2O)ccn1 [Compound 8, 4-(2-methoxypyridin-4-yl)-1-(5-(methylsulfonyl)pyridin-2-yl)-1H-pyrazol-5-ol]	< 0.1 µM	< 0.1 µM	0.1 to 1 µM
CS(=O)(=O)c1ccc(-n2ncc(-c3ccc(Br)cc3)c2O)nc1 [Compound 9, 4-(4-bromophenyl)-1-(5-(methylsulfonyl)pyridin-2-yl)-1H-pyrazol-5-ol]	< 0.1 µM	< 0.1 µM	0.1 to 1 µM
N#Cc1ccc(-c2cnn(-c3ccc(-c4ccccn4)cn3)c2O)cc1 [Compound 13, 4-(1-([2,3′-bipyridin]-6′-yl)-5-hydroxy-1H-pyrazol-4-yl)benzonitrile]	< 0.1 µM	0.1 to 1 µM	
N#Cc1ccc(-c2cnn(-c3ccc(C(F)(F)F)cn3)c2O)cc1 [Compound 14, 4-(5-hydroxy-1-(5-(trifluoromethyl)pyridin-2-yl)-1H-pyrazol-4-yl)benzonitrile]	0.1 to 1 µM	1 to 10 µM	
N#Cc1ccc(-c2cnn(-c3ccc(C4CC4)cn3)c2O)cc1 [Compound 16, 4-(1-(5-cyclopropylpyridin-2-yl)-5-hydroxy-1H-pyrazol-4-yl)benzonitrile]	0.1 to 1 µM	≥ 10 µM	
N#Cc1ccc(-c2cnn(-c3ccc(Cl)cn3)c2O)cc1 [Compound 18, 4-(1-(5-chloropyridin-2-yl)-5-hydroxy-1H-pyrazol-4-yl)benzonitrile]	0.1 to 1 µM	0.1 to 1 µM	
N#Cc1ccc(-c2cnn(-c3ccc(Br)cn3)c2O)cc1 [Compound 21, 4-(1-(5-bromopyridin-2-yl)-5-hydroxy-1H-pyrazol-4-yl)benzonitrile]	0.1 to 1 µM	0.1 to 1 µM	
CS(=N)(=O)c1ccc(-n2ncc(-c3ccc(C#N)cc3)c2O)nc1 (stereo not shown) [Compound 26, 4-(5-hydroxy-1-(5-(S-methylsulfonimidoyl)pyridin-2-yl)-1H-pyrazol-4-yl)benzonitrile]	< 0.1 µM	< 0.1 µM	
CS(=O)(=O)NC(=O)c1ccc(-n2ncc(-c3ccc(C#N)cc3)c2O)nc1 [Compound 27, 6-(4-(4-cyanophenyl)-5-hydroxy-1H-pyrazol-1-yl)-N-(methylsulfonyl) nicotinamide]	< 0.1 µM	< 0.1 µM	
N#Cc1ccc(-c2cnn(-c3ccc(NC(=O)N4CCOCC4)cn3)c2O)cc1 [Compound 28, N-(6-(4-(4-cyanophenyl)-5-hydroxy-1H-pyrazol-1-yl)pyridin-3-yl)morpholine-4-carboxamide]	≥ 10 µM	≥ 10 µM	
CC(=O)NS(=O)(=O)c1ccc(-n2ncc(-c3ccc(C#N)cc3)c2O)nc1 [Compound 29, N-((6-(4-(4-cyanophenyl)-5-hydroxy-1H-pyrazol-1-yl)pyridin-3-yl)sulfonyl)acetamide]	< 0.1 µM	< 0.1 µM	
CP(C)(=O)c1ccc(-n2ncc(-c3ccc(C#N)cc3)c2O)nc1 [Compound 30, 4-(1-(5-(dimethylphosphoryl)pyridin-2-yl)-5-hydroxy-1H-pyrazol-4-yl)benzonitrile]	< 0.1 µM	< 0.1 µM	
CS(=O)(=O)c1ccc(-n2ncc(-c3ccc(Cl)cn3)c2O)nc1 [Compound 31, 4-(5-chloropyridin-2-yl)-1-(5-(methylsulfonyl)pyridin-2-yl)-1H-pyrazol-5-ol]	0.1 to 1 µM	0.1 to 1 µM	
Cc1cc(C#N)ccc1-c1cnn(-c2ncc(S(C)(=O)=O)cc2Cl)c1O [Compound 32, 4-(1-(3-chloro-5-(methylsulfonyl)pyridin-2-yl)-5-hydroxy-1H-pyrazol-4-yl)-3-methylbenzonitrile]	≥ 10 µM	≥ 10 µM	
N#Cc1ccc(-c2cnn(-c3ccc(NC(=O)N4CCNCC4)cn3)c2O)cc1 [Compound 33, N-(6-(4-(4-cyanophenyl)-5-hydroxy-1H-pyrazol-1-yl)pyridin-3-yl)piperazine-1-carboxamide]	≥ 10 µM	≥ 10 µM	
